# Measured values as given in ChEMBL document CHEMBL3885881, “DrugMatrix”.
# Species on record: Rattus norvegicus
# Assay: DrugMatrix - Regimen: Daily Repeat
# Type: toxicity, organism-based, Sprague-Dawley
# Parameters: regimen Daily Repeat, gender Male, age 6-8 weeks
# Settings: in vivo, po, route oral GAVAGE, vehicle 100 % WATER; for HEMATOCRIT / HEMOGLOBIN / LEUKOCYTE COUNT / MEAN CORPUSCULAR HEMOGLOBIN / MEAN CORPUSCULAR HEMOGLOBIN CONCENTRATION / MEAN CORPUSCULAR VOLUME: tissue Blood; for ALANINE AMINOTRANSFERASE / ALBUMIN / ALKALINE PHOSPHATASE / ASPARTATE AMINOTRANSFERASE / BLOOD UREA NITROGEN / CARBON DIOXIDE / CHLORIDE / CHOLESTEROL / CREATINE PHOSPHOKINASE / CREATININE / LACTATE DEHYDROGENASE / LIPASE / PHOSPHORUS / TOTAL BILIRUBIN / TOTAL PROTEIN / URIC ACID: tissue Plasma
# [1] = 0 mg/kg, 72 h, dose level Control, time 3 day
# [2] = 0 mg/kg, 120 h, dose level Control, time 5 day
# [3] = 58 mg/kg, 72 h, dose level Low, time 3 day
# [4] = 58 mg/kg, 120 h, dose level Low, time 5 day
structure (smiles),measurement,setting,value
COc1cc2ncnc(Nc3ccc(F)c(Cl)c3)c2cc1OCCCN1CCOCC1 [GEFITINIB],HEMATOCRIT,[1],42.62%
same,HEMOGLOBIN,[1],13.07 G/DL
same,LEUKOCYTE COUNT,[1],13.95 x10E3/uL
same,MEAN CORPUSCULAR HEMOGLOBIN,[1],21.47 pg
same,MEAN CORPUSCULAR HEMOGLOBIN CONCENTRATION,[1],30.62 G/DL
same,MEAN CORPUSCULAR VOLUME,[1],70.05 fL
same,ALANINE AMINOTRANSFERASE,[1],47.67 u/L
same,ALBUMIN,[1],3.8 G/DL
same,ALKALINE PHOSPHATASE,[1],369 u/L
same,ASPARTATE AMINOTRANSFERASE,[1],86.17 u/L
same,BLOOD UREA NITROGEN,[1],16.33 mg/dL
same,CARBON DIOXIDE,[1],37.33 mmol/L
same,CHLORIDE,[1],104.83 MEQ/L
same,CHOLESTEROL,[1],79.83 mg/dL
same,CREATINE PHOSPHOKINASE,[1],392.83 u/L
same,CREATININE,[1],0.68 mg/dL
same,LACTATE DEHYDROGENASE,[1],426.17 u/L
same,LIPASE,[1],11.67 u/L
same,PHOSPHORUS,[1],11 mg/dL
same,TOTAL BILIRUBIN,[1],0.55 mg/dL
same,TOTAL PROTEIN,[1],6.32 G/DL
same,URIC ACID,[1],0.0167 mg/dL
same,HEMATOCRIT,[2],46.82%
same,HEMOGLOBIN,[2],14.23 G/DL
same,LEUKOCYTE COUNT,[2],13.43 x10E3/uL
same,MEAN CORPUSCULAR HEMOGLOBIN,[2],20.55 pg
same,MEAN CORPUSCULAR HEMOGLOBIN CONCENTRATION,[2],30.38 G/DL
same,MEAN CORPUSCULAR VOLUME,[2],67.62 fL
same,ALANINE AMINOTRANSFERASE,[2],44.67 u/L
same,ALBUMIN,[2],3.8 G/DL
same,ALKALINE PHOSPHATASE,[2],417.83 u/L
same,ASPARTATE AMINOTRANSFERASE,[2],83 u/L
same,BLOOD UREA NITROGEN,[2],15.33 mg/dL
same,CARBON DIOXIDE,[2],38.83 mmol/L
same,CHLORIDE,[2],98.17 MEQ/L
same,CHOLESTEROL,[2],66.83 mg/dL
same,CREATINE PHOSPHOKINASE,[2],383.17 u/L
same,CREATININE,[2],0.72 mg/dL
same,LACTATE DEHYDROGENASE,[2],519.67 u/L
same,LIPASE,[2],4.83 u/L
same,PHOSPHORUS,[2],11.07 mg/dL
same,TOTAL BILIRUBIN,[2],0.55 mg/dL
same,TOTAL PROTEIN,[2],6.3 G/DL
same,URIC ACID,[2],0.0833 mg/dL
same,HEMATOCRIT,[3],45.2%
same,HEMOGLOBIN,[3],13.93 G/DL
same,LEUKOCYTE COUNT,[3],13.22 x10E3/uL
same,MEAN CORPUSCULAR HEMOGLOBIN,[3],21.17 pg
same,MEAN CORPUSCULAR HEMOGLOBIN CONCENTRATION,[3],30.87 G/DL
same,MEAN CORPUSCULAR VOLUME,[3],68.57 fL
same,ALANINE AMINOTRANSFERASE,[3],47.67 u/L
same,ALBUMIN,[3],3.63 G/DL
same,ALKALINE PHOSPHATASE,[3],348 u/L
same,ASPARTATE AMINOTRANSFERASE,[3],93.67 u/L
same,BLOOD UREA NITROGEN,[3],18 mg/dL
same,CARBON DIOXIDE,[3],36.33 mmol/L
same,CHLORIDE,[3],108 MEQ/L
same,CHOLESTEROL,[3],79.67 mg/dL
same,CREATINE PHOSPHOKINASE,[3],307.67 u/L
same,CREATININE,[3],0.7 mg/dL
same,LACTATE DEHYDROGENASE,[3],373.67 u/L
same,LIPASE,[3],10.67 u/L
same,PHOSPHORUS,[3],10.37 mg/dL
same,TOTAL BILIRUBIN,[3],0.37 mg/dL
same,TOTAL PROTEIN,[3],5.97 G/DL
same,URIC ACID,[3],0 mg/dL
same,HEMATOCRIT,[4],46.33%
same,HEMOGLOBIN,[4],14.27 G/DL
same,LEUKOCYTE COUNT,[4],14.5 x10E3/uL
same,MEAN CORPUSCULAR HEMOGLOBIN,[4],20.73 pg
same,MEAN CORPUSCULAR HEMOGLOBIN CONCENTRATION,[4],30.83 G/DL
same,MEAN CORPUSCULAR VOLUME,[4],67.23 fL
same,ALANINE AMINOTRANSFERASE,[4],52.67 u/L
same,ALBUMIN,[4],3.6 G/DL
same,ALKALINE PHOSPHATASE,[4],361.67 u/L
same,ASPARTATE AMINOTRANSFERASE,[4],94 u/L
same,BLOOD UREA NITROGEN,[4],17.33 mg/dL
same,CARBON DIOXIDE,[4],35.67 mmol/L
same,CHLORIDE,[4],100.33 MEQ/L
same,CHOLESTEROL,[4],85.33 mg/dL
same,CREATINE PHOSPHOKINASE,[4],299.67 u/L
same,CREATININE,[4],0.7 mg/dL
same,LACTATE DEHYDROGENASE,[4],423.67 u/L
same,LIPASE,[4],5.33 u/L
same,PHOSPHORUS,[4],11.87 mg/dL
same,TOTAL BILIRUBIN,[4],0.4 mg/dL
same,TOTAL PROTEIN,[4],6.07 G/DL
same,URIC ACID,[4],0.0333 mg/dL
